In ChEMBL document CHEMBL4043174, “Synthesis, conformational study and antiviral activity of l-like neplanocin derivatives” (Bioorg Med Chem Lett, 2017):
Active and inactive are the calls of the source.

Assays:
Usutu virus = assay: Antiviral activity against Usutu virus; type: functional
Tacaribe virus = assay: Antiviral activity against Tacaribe virus; type: functional; conditions: Mammarenavirus tacaribeense
Vaccinia virus = assay: Antiviral activity against vaccinia virus infected in PRK cells assessed as reduction in virus-induced cytopathic effect after 2 to 3 days; type: functional, cell-based; conditions: Orthopoxvirus vaccinia
Chikungunya virus = assay: Antiviral activity against Chikungunya virus; type: functional
Ebolavirus = assay: Antiviral activity against Ebolavirus; type: functional; conditions: for EC50: Orthoebolavirus
[1] = tested on: Vesicular stomatitis virus; assay: Antiviral activity against vesicular stomatitis virus infected in PRK cells assessed as reduction in virus-induced cytopathic effect after 1 to 2 days; type: functional, cell-based
unidentified adenovirus = assay: Antiviral activity against Adenovirus; type: functional
Punta Toro virus = assay: Antiviral activity against Punta Toro virus; type: functional
Enterovirus C = assay: Antiviral activity against Poliovirus; type: functional
Yellow fever virus [2] = assay: Antiviral activity against Yellow fever virus; type: functional
Dengue virus [3] = assay: Antiviral activity against Dengue virus; type: functional
West Nile virus [4] = assay: Antiviral activity against West Nile virus; type: functional
Norovirus = assay: Antiviral activity against Norovirus; type: functional
Vero = assay: (§1) Cytotoxicity against African green monkey Vero cells assessed as reduction in cell viability; type: cell-based; conditions: chlorocebus sabaeus, vero
Rift Valley fever virus [5] = assay: Antiviral activity against Rift Valley fever virus; type: functional
[6] = tested on: Venezuelan equine encephalitis virus; assay: Antiviral activity against Venezuelan equine encephalitis virus; type: functional
Zika virus = assay: Antiviral activity against Zika virus; type: functional
[7] = tested on: Japanese encephalitis virus; assay: Antiviral activity against Japanese encepahalitis virus; type: functional
Measles morbillivirus = assay: Antiviral activity against measles virus; type: functional
West Nile virus [8] = assay: Antiviral activity against West Nile virus infected in African green monkey Vero cells; type: functional
Yellow fever virus [9] = assay: Antiviral activity against Yellow fever virus infected in African green monkey Vero cells; type: functional
[10] = tested on: Japanese encephalitis virus; assay: Antiviral activity against Japanese encepahalitis virus infected in African green monkey Vero cells; type: functional
[11] = tested on: Venezuelan equine encephalitis virus; assay: Antiviral activity against Venezuelan equine encephalitis virus infected in African green monkey Vero cells; type: functional
[12] = as §1; type: cell-based; conditions: chlorocebus sabaeus, Vero cells
Dengue virus [13] = assay: Antiviral activity against Dengue virus infected in African green monkey Vero cells; type: functional
Rift Valley fever virus [14] = assay: Antiviral activity against Rift Valley fever virus infected in African green monkey Vero cells; type: functional

Nc1nccc2c1ncn2[C@H]1C=C[C@H](O)[C@@H]1O (relative stereo)
inactive: Activity (Usutu virus) | Activity (Tacaribe virus) | Activity (Chikungunya virus) | Activity (unidentified adenovirus) | Activity (Punta Toro virus) | Activity (Enterovirus C) | Activity (Yellow fever virus [2]) | Activity (Dengue virus [3]) | Activity (West Nile virus [4]) | Activity (Rift Valley fever virus [5]) | Activity [6] | Activity (Zika virus) | Activity [7] | Activity (Measles morbillivirus)
Non-Toxic: Activity (Vero)
0.2 µg/mL: EC50 [1]
0.7 µg/mL: EC50 (Vaccinia virus)
29.5 µg/mL: EC50 (Ebolavirus)
4.2 µM: EC50 (Norovirus)

Nc1nccc2c1ncn2[C@@H]1[C@@H](O)[C@@H](O)[C@H]2C[C@H]21
inactive: Activity (Usutu virus) | Activity (Tacaribe virus) | Activity (Chikungunya virus) | Activity (Ebolavirus) | Activity (unidentified adenovirus) | Activity (Punta Toro virus) | Activity (Enterovirus C) | Activity (Yellow fever virus [2]) | Activity (Dengue virus [3]) | Activity (West Nile virus [4]) | Activity (Rift Valley fever virus [5]) | Activity [6] | Activity (Zika virus) | Activity [7] | Activity (Measles morbillivirus)
> 100 µM: EC50 (Norovirus)
Non-Toxic: Activity (Vero)

Nc1ncc(Br)c2c1ncn2[C@@H]1[C@@H](O)[C@@H](O)[C@H]2C[C@H]21
Non-Toxic: Activity (Vero)
3 µM: EC50 (Norovirus)
inactive: Activity (Usutu virus) | Activity (Tacaribe virus) | Activity (Chikungunya virus) | Activity (Ebolavirus) | Activity (unidentified adenovirus) | Activity (Punta Toro virus) | Activity (Enterovirus C) | Activity (Yellow fever virus [2]) | Activity (Dengue virus [3]) | Activity (West Nile virus [4]) | Activity (Rift Valley fever virus [5]) | Activity [6] | Activity (Zika virus) | Activity [7] | Activity (Measles morbillivirus)

Nc1ncc(Br)c2c1ncn2[C@H]1C=C[C@H](O)[C@@H]1O
8.3 µg/mL: EC50 (Ebolavirus)
32 µg/mL: IC50 (West Nile virus [8]) | IC50 (Yellow fever virus [9]) | IC50 [10]
inactive: Activity (Usutu virus) | Activity (Tacaribe virus) | Activity (Chikungunya virus) | Activity (unidentified adenovirus) | Activity (Punta Toro virus) | Activity (Enterovirus C) | Activity (Yellow fever virus [2]) | Activity (Dengue virus [3]) | Activity (West Nile virus [4]) | Activity (Rift Valley fever virus [5]) | Activity [6] | Activity (Zika virus) | Activity [7] | Activity (Measles morbillivirus)
33 µM: EC50 (Norovirus)
7.2 µg/mL: IC50 (Dengue virus [13])
27 µg/mL: IC50 [11]
27 to 32 µg/mL: CC50 [12]
31 µg/mL: IC50 (Rift Valley fever virus [14])
